Measurements: PubChem BioAssay AID1963959 (Molecular Pharmacology Branch, DTP, NCI, 2024)

Test system: T-47D spheroids with HUVEC/MSC, viability
Assay: Anticancer human tumor T-47D cell line growth inhibition [PI3K];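 also: spheroids exposed to agents for seven days before reading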;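 as to viability, T/C: percent of DMSO vehicle control luminescence so 100% = untreated growth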
Conditions: for IC50: curve of first compound; for viability, T/C: stronger effect = lower value
Summary of the method: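 Three cell types, namely tumor cells, endothelial cells and mesenchymal stem cells, formed each spheroid. Combinations with four PI3K inhibitors were screened at clinically achievable concentrations decreasing by half-log, and spheroid viability was recorded.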

[1] = second compound 0.00316 µM, first compound 0.0316 µM
[2] = second compound 0.00316 µM, first compound 0.1 µM
[3] = second compound 0.01 µM, first compound 0.0316 µM
[4] = second compound 0.01 µM, first compound 0.1 µM
[5] = second compound 0.0316 µM, first compound 0.0316 µM
[6] = second compound 0.0316 µM, first compound 0.1 µM
[7] = second compound 0.1 µM, first compound 0.0316 µM
[8] = second compound 0.1 µM, first compound 0.1 µM
[9] = second compound 0.316 µM, first compound 0.0316 µM
[10] = second compound 0.316 µM, first compound 0.1 µM
[11] = second compound 1 µM, first compound 0.0316 µM
[12] = second compound 1 µM, first compound 0.1 µM

CC(C)n1nc(-c2ccc3oc(N)nc3c2)c2c(N)ncnc21 + CC(Nc1ccc2c(c1)OCCn1cc(N3C(=O)OCC3C(F)F)nc1-2)C(N)=O
IC50 (second compound 0.00316 µM): 69.5 nM | IC50 (second compound 0.01 µM): 59.6 nM | IC50 (second compound 0.0316 µM): 51.4 nM | IC50 (second compound 0.1 µM): 28.4 nM | IC50 (second compound 0.316 µM): 5.64 nM | IC50 (second compound 1 µM): 2.28 nM | viability, T/C (second compound 0.00316 µM, first compound 0.000316 µM): 112% | viability, T/C (second compound 0.00316 µM, first compound 0.001 µM): 98% | viability, T/C (second compound 0.00316 µM, first compound 0.00316 µM): 110% | viability, T/C (second compound 0.00316 µM, first compound 0.01 µM): 91.2% | viability, T/C [1]: 88.6% | viability, T/C [2]: 33% | viability, T/C (second compound 0.01 µM, first compound 0.000316 µM): 89.2% | viability, T/C (second compound 0.01 µM, first compound 0.001 µM): 97.4% | viability, T/C (second compound 0.01 µM, first compound 0.00316 µM): 94.4% | viability, T/C (second compound 0.01 µM, first compound 0.01 µM): 83.2% | viability, T/C [3]: 72.5% | viability, T/C [4]: 32.2% | viability, T/C (second compound 0.0316 µM, first compound 0.000316 µM): 94.6% | viability, T/C (second compound 0.0316 µM, first compound 0.001 µM): 101% | viability, T/C (second compound 0.0316 µM, first compound 0.00316 µM): 84.5% | viability, T/C (second compound 0.0316 µM, first compound 0.01 µM): 82.4% | viability, T/C [5]: 70.5% | viability, T/C [6]: 25.5% | viability, T/C (second compound 0.1 µM, first compound 0.000316 µM): 76% | viability, T/C (second compound 0.1 µM, first compound 0.001 µM): 90.8% | viability, T/C (second compound 0.1 µM, first compound 0.00316 µM): 89.9% | viability, T/C (second compound 0.1 µM, first compound 0.01 µM): 71.1% | viability, T/C [7]: 48.5% | viability, T/C [8]: 17% | viability, T/C (second compound 0.316 µM, first compound 0.000316 µM): 68.2% | viability, T/C (second compound 0.316 µM, first compound 0.001 µM): 65.1% | viability, T/C (second compound 0.316 µM, first compound 0.00316 µM): 56.5% | viability, T/C (second compound 0.316 µM, first compound 0.01 µM): 41.8% | viability, T/C [9]: 29.9% | viability, T/C [10]: 5.87% | viability, T/C (second compound 1 µM, first compound 0.000316 µM): 57.6% | viability, T/C (second compound 1 µM, first compound 0.001 µM): 56.2% | viability, T/C (second compound 1 µM, first compound 0.00316 µM): 47.9% | viability, T/C (second compound 1 µM, first compound 0.01 µM): 34.4% | viability, T/C [11]: 18.8% | viability, T/C [12]: 3.47%

CCCS(=O)(=O)Nc1ccc(F)c(C(=O)c2c[nH]c3ncc(-c4ccc(Cl)cc4)cc23)c1F + COc1c(OCCCN2CCOCC2)ccc2c3n(c(=NC(=O)c4cnc(N)nc4)nc12)CCN3
IC50 (second compound 0.00316 µM): > 10000 nM | IC50 (second compound 0.01 µM): > 10000 nM | IC50 (second compound 0.0316 µM): > 10000 nM | IC50 (second compound 0.1 µM): < 31.6 nM | IC50 (second compound 0.316 µM): < 31.6 nM | IC50 (second compound 1 µM): < 31.6 nM | viability, T/C [1]: 104% | viability, T/C [2]: 86.9% | viability, T/C (second compound 0.00316 µM, first compound 0.316 µM): 110% | viability, T/C (second compound 0.00316 µM, first compound 1 µM): 94.1% | viability, T/C (second compound 0.00316 µM, first compound 3.16 µM): 69.5% | viability, T/C (second compound 0.00316 µM, first compound 10 µM): 56.8% | viability, T/C [3]: 98.3% | viability, T/C [4]: 86.2% | viability, T/C (second compound 0.01 µM, first compound 0.316 µM): 83.4% | viability, T/C (second compound 0.01 µM, first compound 1 µM): 92.4% | viability, T/C (second compound 0.01 µM, first compound 3.16 µM): 87.4% | viability, T/C (second compound 0.01 µM, first compound 10 µM): 51.3% | viability, T/C [5]: 66.8% | viability, T/C [6]: 77% | viability, T/C (second compound 0.0316 µM, first compound 0.316 µM): 73.9% | viability, T/C (second compound 0.0316 µM, first compound 1 µM): 62.5% | viability, T/C (second compound 0.0316 µM, first compound 3.16 µM): 57.5% | viability, T/C (second compound 0.0316 µM, first compound 10 µM): 52.2% | viability, T/C [7]: 38% | viability, T/C [8]: 42.6% | viability, T/C (second compound 0.1 µM, first compound 0.316 µM): 36.4% | viability, T/C (second compound 0.1 µM, first compound 1 µM): 39.8% | viability, T/C (second compound 0.1 µM, first compound 3.16 µM): 31.6% | viability, T/C (second compound 0.1 µM, first compound 10 µM): 33.7% | viability, T/C [9]: 14.9% | viability, T/C [10]: 22.1% | viability, T/C (second compound 0.316 µM, first compound 0.316 µM): 18.3% | viability, T/C (second compound 0.316 µM, first compound 1 µM): 16.1% | viability, T/C (second compound 0.316 µM, first compound 3.16 µM): 18.8% | viability, T/C (second compound 0.316 µM, first compound 10 µM): 20.5% | viability, T/C [11]: 5.53% | viability, T/C [12]: 9.03% | viability, T/C (second compound 1 µM, first compound 0.316 µM): 6.15% | viability, T/C (second compound 1 µM, first compound 1 µM): 2.77% | viability, T/C (second compound 1 µM, first compound 3.16 µM): 4.64% | viability, T/C (second compound 1 µM, first compound 10 µM): 6.82%
